Results on 17 compounds are retold here after ChEMBL document CHEMBL1151792, “Development of novel tail-modified anandamide analogs” (Bioorg Med Chem Lett, 2008).

One assay has as its target Cannabinoid receptor 1 (Rattus norvegicus, UniProt P20272). It is filed as cell membranes, Brain, Membrane.
A further assay deals with Cannabinoid receptor 2 (Mus musculus, UniProt P47936). Description: Displacement of [3H]CP-55940 from cannabinoid CB2 receptor in mouse spleen membrane. In kind it is cell membranes.
Cannabinoid receptor 2, sequence (P47936 whole entry): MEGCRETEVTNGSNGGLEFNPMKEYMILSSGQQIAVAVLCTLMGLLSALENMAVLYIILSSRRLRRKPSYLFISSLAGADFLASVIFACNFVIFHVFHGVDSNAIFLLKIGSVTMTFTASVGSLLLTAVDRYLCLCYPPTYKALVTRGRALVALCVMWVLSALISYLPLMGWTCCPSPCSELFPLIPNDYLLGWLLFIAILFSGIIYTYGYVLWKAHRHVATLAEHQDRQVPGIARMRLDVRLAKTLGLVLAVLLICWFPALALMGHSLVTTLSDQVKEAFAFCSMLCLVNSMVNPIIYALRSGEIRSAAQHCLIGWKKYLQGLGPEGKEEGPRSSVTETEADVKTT

Cannabinoid receptor 1, sequence (P20272 whole entry): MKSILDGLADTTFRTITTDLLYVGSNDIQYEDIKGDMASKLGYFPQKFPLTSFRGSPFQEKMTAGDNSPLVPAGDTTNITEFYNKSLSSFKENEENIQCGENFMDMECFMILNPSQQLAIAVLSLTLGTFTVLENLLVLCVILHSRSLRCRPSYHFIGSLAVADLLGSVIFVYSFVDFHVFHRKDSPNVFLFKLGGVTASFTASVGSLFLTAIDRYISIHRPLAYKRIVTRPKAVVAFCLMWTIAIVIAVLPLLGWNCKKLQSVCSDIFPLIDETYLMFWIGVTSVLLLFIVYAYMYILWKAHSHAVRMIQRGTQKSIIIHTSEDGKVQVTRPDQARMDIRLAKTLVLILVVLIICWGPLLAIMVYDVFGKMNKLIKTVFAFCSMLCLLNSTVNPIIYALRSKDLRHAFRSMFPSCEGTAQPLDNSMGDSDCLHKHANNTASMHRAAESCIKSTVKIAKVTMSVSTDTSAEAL
Description for Cannabinoid receptor 1: Displacement of [3H]CP-55940 from cannabinoid CB1 receptor in rat brain membrane in presence of phenylmethanesulfonyl fluoride

With `C[C@H](CO)NC(=O)CCC/C=C\C/C=C\C/C=C\C/C=C\CCCCCc1ccccc1`, the results for the inhibition constant Ki at Cannabinoid receptor 1 and at Cannabinoid receptor 2 were 76.6 nM and 241 nM, respectively. As to `C[C@H](CO)NC(=O)CCC/C=C\C/C=C\C/C=C\C/C=C\CCCCc1ccccc1`, the Ki stood at 13.3 nM on Cannabinoid receptor 1 and 1120 nM on Cannabinoid receptor 2. Consider `C[C@H](CO)NC(=O)CCC/C=C\C/C=C\C/C=C\C/C=C\CCCCc1cccc(Cl)c1`, for which the Ki is 89.4 nM on Cannabinoid receptor 1 and 605 nM on Cannabinoid receptor 2. `C[C@H](CO)NC(=O)CCC/C=C\C/C=C\C/C=C\C/C=C\CCCCc1cccc(Br)c1`: the Ki on Cannabinoid receptor 1 amounted to 95.3 nM; at Cannabinoid receptor 2 it was 1050 nM. As for `C[C@H](CO)NC(=O)CCC/C=C\C/C=C\C/C=C\C/C=C\CCCCc1cccc(I)c1`, the Ki on Cannabinoid receptor 1 was 533 nM; on Cannabinoid receptor 2, 1560 nM.

Regarding `C[C@H](CO)NC(=O)CCC/C=C\C/C=C\C/C=C\C/C=C\CCCCc1ccoc1`, the Ki stood at 12 nM on Cannabinoid receptor 1 and 1030 nM at Cannabinoid receptor 2. In the case of `C[C@H](CO)NC(=O)CCC/C=C\C/C=C\C/C=C\C/C=C\CCCCCc1ccoc1`, the Ki came to 170 nM on Cannabinoid receptor 1 and 869 nM on Cannabinoid receptor 2. As for `C[C@H](CO)NC(=O)CCC/C=C\C/C=C\C/C=C\C/C=C\CCCCCc1ccco1`, the Ki at Cannabinoid receptor 1 came to 561 nM; on Cannabinoid receptor 2 it was 3260 nM.

With `C[C@H](CO)NC(=O)CCC/C=C\C/C=C\C/C=C\C/C=C\Cc1ccccc1`, the values for the Ki at Cannabinoid receptor 1 and on Cannabinoid receptor 2 were 349 nM and 826 nM, respectively. The like results for `C[C@H](CO)NC(=O)CCC/C=C\C/C=C\C/C=C\C/C=C\CCc1ccccc1` were, in that order, 241 nM and 335 nM. As for `C[C@H](CO)NC(=O)CCC/C=C\C/C=C\C/C=C\C/C=C\CCCCc1ccc(Br)cc1`, the inhibition constant (Ki) at Cannabinoid receptor 1 came to 8.9 nM; at Cannabinoid receptor 2 it was 250 nM. The like results for `C[C@H](CO)NC(=O)CCC/C=C\C/C=C\C/C=C\C/C=C\CCCCc1cccc(C(F)(F)F)c1` were, in that order, 284 nM and 2040 nM. For `Cc1cccc(CCCC/C=C\C/C=C\C/C=C\C/C=C\CCCC(=O)N[C@H](C)CO)c1`, the Ki on Cannabinoid receptor 1 came to 344 nM; at Cannabinoid receptor 2, 840 nM. On to `C[C@H](CO)NC(=O)CCC/C=C\C/C=C\C/C=C\C/C=C\CCCCc1ccccc1Br`, for which the affinity on Cannabinoid receptor 1 corresponds to a Ki of 170 nM. Consider `C[C@H](CO)NC(=O)CCC/C=C\C/C=C\C/C=C\C/C=C\CCCCc1cccc2ccccc12`, for which the Ki on Cannabinoid receptor 1 turned out to be 678 nM; on Cannabinoid receptor 2, 4000 nM. `C[C@H](CO)NC(=O)CCC/C=C\C/C=C\C/C=C\C/C=C\CCCCc1ccco1`: the inhibition constant Ki at Cannabinoid receptor 1 was 325 nM; at Cannabinoid receptor 2 it was 750 nM. Take `C[C@H](CO)NC(=O)CCC/C=C\C/C=C\C/C=C\C/C=C\CCCc1ccccc1`: the values for the Ki at Cannabinoid receptor 1 and at Cannabinoid receptor 2 were 69.2 nM and 534 nM, respectively.

A word on the Ki: it is a dissociation constant, usually derived from enzyme kinetics or from competition with a known ligand.
